Laboratory results taken from ChEMBL document CHEMBL1123679, “5-Quinone derivatives of 2'-deoxyuridine 5'-phosphate: inhibition and inactivation of thymidylate synthase, antitumor cell, and antiviral studies” (J Med Chem, 1987).

Experiments:
[1] = target: T1, Thymidylate synthase (Lactobacillus casei) (UniProt P00469); conditions: Lacticaseibacillus casei; 10 uM
T1 sequence (whole entry): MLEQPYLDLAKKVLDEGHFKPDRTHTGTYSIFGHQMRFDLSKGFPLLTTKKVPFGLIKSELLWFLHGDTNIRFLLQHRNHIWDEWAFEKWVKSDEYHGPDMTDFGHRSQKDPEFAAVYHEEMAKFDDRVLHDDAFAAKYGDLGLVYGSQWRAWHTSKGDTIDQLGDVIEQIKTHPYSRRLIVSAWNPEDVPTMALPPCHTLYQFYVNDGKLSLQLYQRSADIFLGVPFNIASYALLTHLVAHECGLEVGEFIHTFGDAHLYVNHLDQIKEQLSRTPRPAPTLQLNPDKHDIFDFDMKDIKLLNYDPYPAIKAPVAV

[2] = target: T1, Thymidylate synthase (Lactobacillus casei); conditions: Lacticaseibacillus casei
[3] = Apparent second order rate constant determined as the ratio of kinact/Ki
[4] = target: T1, Thymidylate synthase (Lactobacillus casei); conditions: Lacticaseibacillus casei; remark: listed apart in the source
[5] = target: T1, Thymidylate synthase (Lactobacillus casei); conditions: Lacticaseibacillus casei; remark: listed apart in the source
[6] = target: T1, Thymidylate synthase (Lactobacillus casei); conditions: Lacticaseibacillus casei; remark: listed apart in the source
[7] = target: T1, Thymidylate synthase (Lactobacillus casei); conditions: Lacticaseibacillus casei; remark: listed apart in the source
[8] = target: T1, Thymidylate synthase (Lactobacillus casei); conditions: Lacticaseibacillus casei; remark: listed apart in the source
[9] = target: T1, Thymidylate synthase (Lactobacillus casei); conditions: Lacticaseibacillus casei; remark: listed apart in the source
[10] = target: T1, Thymidylate synthase (Lactobacillus casei); conditions: Lacticaseibacillus casei; remark: listed apart in the source
[11] = target: T1, Thymidylate synthase (Lactobacillus casei); test: Kinetic constant for inactivation of Lactobacillus casei thymidylate synthase from double reciprocal plots; conditions: Lacticaseibacillus casei
[12] = target: T1, Thymidylate synthase (Lactobacillus casei); test: Kinetic constant for the inactivation of Lactobacillus casei thymidylate synthase was determined at 10 uM concentration using 0 uM of substrate; conditions: Lacticaseibacillus casei

Q: For `CC1=C(C)C(=O)C(c2cn([C@H]3C[C@H](O)[C@@H](COP(=O)(O)O)O3)c(=O)[nH]c2=O)=C(C)C1=O`, which K obs / s [1] is on record?
A: 0.0084

Q: And the K inact [2]?
A: 0.014 s⁻¹

Q: For `CC1=C(C)C(=O)C(c2cn([C@H]3C[C@H](O)[C@@H](COP(=O)(O)O)O3)c(=O)[nH]c2=O)=CC1=O`, which Ratio [3] is on record?
A: 2.5

Q: And the k obs [4]?
A: 0.0052 s⁻¹

Q: What about the k obs [5] of the same molecule?
A: 0.0028 s⁻¹

Q: What about the k obs [6] of the same molecule?
A: 0.0092 s⁻¹

Q: What about the k obs [7] of the same molecule?
A: 0.0066 s⁻¹

Q: What about the k obs [8] of the same molecule?
A: 0.011 s⁻¹

Q: What about the k obs [9] of the same molecule?
A: 0.015 s⁻¹

Q: And the k obs [10]?
A: 0.011 s⁻¹

Q: And the K inact [2]?
A: 0.015 s⁻¹

Q: Which K inact [11] does the source give for `O=C1C=CC(=O)C(c2cn([C@H]3C[C@H](O)[C@@H](COP(=O)(O)O)O3)c(=O)[nH]c2=O)=C1` here?
A: 0.065 s⁻¹

Q: What about the Ratio [3] of the same molecule?
A: 3.2

Q: For `CC1=C(C)C(=O)C(c2cn([C@H]3C[C@H](O)[C@@H](CO)O3)c(=O)[nH]c2=O)=CC1=O`, which k obs [12] is on record?
A: 4e-05 s⁻¹
